The values that follow come from patent publication US20100029657A1, “Bridged, Bicyclic Heterocyclic or Spiro Bicyclic Heterocyclic Derivatives of Pyrazolo[1, 5-A]Pyrimidines, Methods for Preparation and Uses Thereof” (Wyeth, priority 2008, published 2010).

T1 sequence (P15056 whole entry): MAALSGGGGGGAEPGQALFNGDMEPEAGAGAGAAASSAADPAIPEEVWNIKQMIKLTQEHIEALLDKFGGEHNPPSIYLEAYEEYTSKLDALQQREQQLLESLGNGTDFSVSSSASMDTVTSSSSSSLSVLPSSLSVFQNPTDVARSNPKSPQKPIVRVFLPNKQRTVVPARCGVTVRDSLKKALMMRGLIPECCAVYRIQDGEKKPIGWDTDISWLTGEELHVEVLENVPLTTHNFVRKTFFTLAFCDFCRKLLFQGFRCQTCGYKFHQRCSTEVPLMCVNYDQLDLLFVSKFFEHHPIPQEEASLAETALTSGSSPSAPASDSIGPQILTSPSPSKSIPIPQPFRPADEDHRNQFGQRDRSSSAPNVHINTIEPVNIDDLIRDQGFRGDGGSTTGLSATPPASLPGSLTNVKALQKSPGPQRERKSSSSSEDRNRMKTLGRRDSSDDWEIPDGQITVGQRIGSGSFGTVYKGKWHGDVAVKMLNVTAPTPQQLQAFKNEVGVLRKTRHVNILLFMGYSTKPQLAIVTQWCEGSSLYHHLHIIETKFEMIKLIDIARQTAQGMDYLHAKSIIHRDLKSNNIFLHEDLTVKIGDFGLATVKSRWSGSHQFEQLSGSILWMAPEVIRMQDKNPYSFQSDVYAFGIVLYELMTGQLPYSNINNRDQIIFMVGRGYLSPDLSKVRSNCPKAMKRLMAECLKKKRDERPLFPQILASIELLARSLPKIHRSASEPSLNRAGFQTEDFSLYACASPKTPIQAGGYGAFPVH

The assay has as its target T1, Flag/GST-tagged recombinant human B-Raf (Homo sapiens, UniProt P15056).
T1 construct: Flag; GST; made in house; host or cells: Sf9 insect cells (B-Raf); E. coli (MEK1-GST)
Put plainly: B-Raf kinase assay (phosphorylation of GST-MEK1, phospho-MEK1 antibody/Europium detection). It counts as biochemical. To be noted: B-Raf IC50 Data for compounds of Formula A; read-out: Mean IC50. The gist of the method:
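Percent inhibition was calculated at each compound concentration from Europium time-resolved fluorescence (anti-phospho-MEK1, then Eu-conjugated anti-rabbit) after GST capture. The upstream kinase step used GST-MEK1 with 0.2 nM B-Raf for 45 min at room temperature in MOPS buffer, pH 7.2. It was started with a cocktail of 200 μM ATP and 40 mM MgCl2.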
The term IC50 denotes the midpoint of a concentration-inhibition curve. As to `CN1C[C@@H]2C[C@H]1CN2c1ccc(-c2ccnc3c(-c4cccc5[nH]ncc45)c(-c4ccncc4)nn23)c(C(F)(F)F)c1` [Example 189, 3-(1H-indazol-4-yl)-7-{4-[(1S,4S)-5-methyl-2,5-diazabicyclo[2.2.1]hept-2-yl]-2-(trifluoromethyl)phenyl}-2-pyridin-4-ylpyrazolo[1,5-a]pyrimidine], the IC50 was 1.4 nM.

As for `CN1C[C@@H]2C[C@H]1CN2c1ccc(-c2ccnc3c(-c4cccc5[nH]ncc45)c(-c4ccncc4)nn23)c(Br)c1` [Example 190, 7-{2-bromo-4-[(1S,4S)-5-methyl-2,5-diazabicyclo[2.2.1]hept-2-yl]phenyl}-3-(1H-indazol-4-yl)-2-pyridin-4-ylpyrazolo[1,5-a]pyrimidine], the IC50 was less than 0.3 nM.

For `C1=C(c2ccnc3c(-c4cccc5[nH]ncc45)c(-c4ccncc4)nn23)CCC2(C1)OCCO2` [Example 191, 7-(1,4-dioxaspiro[4.5]dec-7-en-8-yl)-3-(1H-indazol-4-yl)-2-pyridin-4-ylpyrazolo[1,5-a]pyrimidine], the IC50 was 56.1 nM.

As to `C[N+]1([O-])C[C@@H]2C[C@H]1CN2c1cc(F)c(-c2ccnc3c(-c4cccc5[nH]ncc45)c(-c4ccncc4)nn23)c(F)c1` (stereo partly drawn) [Example 192, 7-{2,6-difluoro-4-[(1S,4S)-5-methyl-5-oxido-2,5-diazabicyclo[2.2.1]hept-2-yl]phenyl}-3-(1H-indazol-4-yl)-2-pyridin-4-ylpyrazolo[1,5-a]pyrimidine], the IC50 worked out at 0.4 nM.

Consider `c1cc(-c2c(-c3ccncc3)nn3c(-c4coc(CN5C[C@@H]6C[C@H]5CO6)c4)ccnc23)c2cn[nH]c2c1` [Example 193, 3-(1H-indazol-4-yl)-7-{5-[(1S,4S)-2-oxa-5-azabicyclo[2.2.1]hept-5-ylmethyl]furan-3-yl}-2-pyridin-4-ylpyrazolo[1,5-a]pyrimidine], for which the IC50 worked out at 18.8 nM.

For the compound `CC(C)(C)OC(=O)N1C[C@@H]2C[C@H]1CN2Cc1cc(-c2ccnc3c(-c4cccc5[nH]ncc45)c(-c4ccncc4)nn23)co1` [Example 194, tert-butyl (1S,4S)-5-({4-[3-(1H-indazol-4-yl)-2-pyridin-4-ylpyrazolo[1,5-a]pyrimidin-7-yl]furan-2-yl}methyl)-2,5-diazabicyclo[2.2.1]heptane-2-carboxylate], the IC50 was found to be 9.1 nM.

Take `c1cc(-c2c(-c3ccncc3)nn3c(-c4coc(CN5C[C@@H]6C[C@H]5CN6)c4)ccnc23)c2cn[nH]c2c1` [Example 195, 7-{5-[(1S,4S)-2,5-diazabicyclo[2.2.1]hept-2-ylmethyl]furan-3-yl}-3-(1H-indazol-4-yl)-2-pyridin-4-ylpyrazolo[1,5-a]pyrimidine]: the IC50 came to 13 nM.

For the compound `CC(C)(C)OC(=O)N1C[C@@H]2C[C@H]1CN2Cc1ccc(-c2ccnc3c(-c4cccc5[nH]ncc45)c(-c4ccncc4)nn23)s1` [Example 196, tert-butyl (1S,4S)-5-({5-[3-(1H-indazol-4-yl)-2-pyridin-4-ylpyrazolo[1,5-a]pyrimidin-7-yl]thiophen-2-yl}methyl)-2,5-diazabicyclo[2.2.1]heptane-2-carboxylate], the IC50 amounted to 11.5 nM.

`c1cc(-c2c(-c3ccncc3)nn3c(-c4ccc(CN5C[C@@H]6C[C@H]5CO6)s4)ccnc23)c2cn[nH]c2c1` [Example 197, 3-(1H-indazol-4-yl)-7-{5-[(1S,4S)-2-oxa-5-azabicyclo[2.2.1]hept-5-ylmethyl]thiophen-2-yl}-2-pyridin-4-ylpyrazolo[1,5-a]pyrimidine]: the IC50 was 5.7 nM.

With `c1cc(-c2c(-c3ccncc3)nn3c(-c4ccc(CN5C[C@@H]6C[C@H]5CN6)s4)ccnc23)c2cn[nH]c2c1` [Example 198, 7-{5-[(1S,4S)-2,5-diazabicyclo[2.2.1]hept-2-ylmethyl]thiophen-2-yl}-3-(1H-indazol-4-yl)-2-pyridin-4-ylpyrazolo[1,5-a]pyrimidine], the IC50 came out at 3.6 nM.

In the case of `CCOC(=O)N1[C@@H]2CC[C@H]1C[C@@H](c1c(C)cnc3c(-c4cccc5[nH]ncc45)c(-c4ccncc4)nn13)C2` [Example 199, ethyl (3-endo)-3-[3-(1H-indazol-4-yl)-6-methyl-2-pyridin-4-ylpyrazolo[1,5-a]pyrimidin-7-yl]-8-azabicyclo[3.2.1]octane-8-carboxylate], the IC50 is 5.5 nM.

Take `c1cc(-c2c(-c3ccncc3)nn3c(-c4ccc(N5CC6CCC(C5)O6)nc4)ccnc23)c2cn[nH]c2c1` [Example 200, 3-(1H-indazol-4-yl)-7-[6-(8-oxa-3-azabicyclo[3.2.1]oct-3-yl)pyridin-3-yl]-2-pyridin-4-ylpyrazolo[1,5-a]pyrimidine]: the IC50 is 5.8 nM.

For the compound `c1cc(-c2c(-c3ccncc3)nn3c(-c4ccc(N5C[C@@H]6C[C@H]5CO6)nc4)ccnc23)c2cn[nH]c2c1` [Example 201, 3-(1H-indazol-4-yl)-7-{6-[(1S,4S)-2-oxa-5-azabicyclo[2.2.1]hept-5-yl]pyridin-3-yl}-2-pyridin-4-ylpyrazolo[1,5-a]pyrimidine], the IC50 was determined as 8.4 nM.

Regarding `CC(C)(C)OC(=O)N1C[C@@H]2C[C@H]1CN2Cc1cccc(-c2ccnc3c(-c4cccc5[nH]ncc45)c(-c4ccncc4)nn23)c1` [Example 202, tert-butyl (1S,4S)-5-{3-[3-(1H-indazol-4-yl)-2-pyridin-4-ylpyrazolo[1,5-a]pyrimidin-7-yl]benzyl}-2,5-diazabicyclo[2.2.1]heptane-2-carboxylate], the IC50 was more than 100 nM.

For the compound `CC(C)(C)OC(=O)N1C[C@@H]2C[C@H]1CN2Cc1ccc(-c2ccnc3c(-c4cccc5[nH]ncc45)c(-c4ccncc4)nn23)cc1` [Example 203, tert-butyl (1S,4S)-5-{4-[3-(1H-indazol-4-yl)-2-pyridin-4-ylpyrazolo[1,5-a]pyrimidin-7-yl]benzyl}-2,5-diazabicyclo[2.2.1]heptane-2-carboxylate], the IC50 was determined as 12 nM.

As to `c1cc(-c2c(-c3ccncc3)nn3c(-c4ccc(CN5C[C@@H]6C[C@H]5CO6)cc4)ccnc23)c2cn[nH]c2c1` [Example 204, 3-(1H-indazol-4-yl)-7-{4-[(1S,4S)-2-oxa-5-azabicyclo[2.2.1]hept-5-ylmethyl]phenyl}-2-pyridin-4-ylpyrazolo[1,5-a]pyrimidine], the IC50 is 10 nM.

On to `Fc1cc(CN2C[C@@H]3C[C@H]2CN3)ccc1-c1ccnc2c(-c3cccc4[nH]ncc34)c(-c3ccncc3)nn12` [Example 205, 7-{4-[(1S,4S)-2,5-diazabicyclo[2.2.1]hept-2-ylmethyl]-2-fluorophenyl}-3-(1H-indazol-4-yl)-2-pyridin-4-ylpyrazolo[1,5-a]pyrimidine], for which the IC50 was found to be 0.35 nM.

With `Fc1cc(CN2C[C@@H]3C[C@H]2CO3)ccc1-c1ccnc2c(-c3cccc4[nH]ncc34)c(-c3ccncc3)nn12` [Example 206, 7-{2-fluoro-4-[(1S,4S)-2-oxa-5-azabicyclo[2.2.1]hept-5-ylmethyl]phenyl}-3-(1H-indazol-4-yl)-2-pyridin-4-ylpyrazolo[1,5-a]pyrimidine], the IC50 was 1.5 nM.

Turning to `Fc1cc(CN2C[C@H]3C[C@@H]2CO3)ccc1-c1ccnc2c(-c3cccc4[nH]ncc34)c(-c3ccncc3)nn12` [Example 207, 7-{2-fluoro-4-[(1R,4R)-2-oxa-5-azabicyclo[2.2.1]hept-5-ylmethyl]phenyl}-3-(1H-indazol-4-yl)-2-pyridin-4-ylpyrazolo[1,5-a]pyrimidine], the IC50 came out at 0.5 nM.

With `c1cc(CN2C[C@@H]3C[C@H]2CN3)cc(-c2ccnc3c(-c4cccc5[nH]ncc45)c(-c4ccncc4)nn23)c1` [Example 208, 7-{3-[(1S,4S)-2,5-diazabicyclo[2.2.1]hept-2-ylmethyl]phenyl}-3-(1H-indazol-4-yl)-2-pyridin-4-ylpyrazolo[1,5-a]pyrimidine], the IC50 amounted to 42 nM.

For `c1cc(-c2c(-c3ccncc3)nn3c(-c4ccc(CN5C[C@@H]6C[C@H]5CN6)cc4)ccnc23)c2cn[nH]c2c1` [Example 209, 7-{4-[(1S,4S)-2,5-diazabicyclo[2.2.1]hept-2-ylmethyl]phenyl}-3-(1H-indazol-4-yl)-2-pyridin-4-ylpyrazolo[1,5-a]pyrimidine], the IC50 stood at 0.6 nM.

Regarding `Fc1cc(CN2C3COCC2COC3)ccc1-c1ccnc2c(-c3cccc4[nH]ncc34)c(-c3ccncc3)nn12` [Example 210, 9-{3-fluoro-4-[3-(1H-indazol-4-yl)-2-pyridin-4-ylpyrazolo[1,5-a]pyrimidin-7-yl]benzyl}-3,7-dioxa-9-azabicyclo[3.3.1]nonane], the IC50 stood at 0.7 nM.

Regarding “Ethyl 3-[3-(2-oxo-2,3-dihydro-1H-pyrrolo[2,3-b]pyridin-4-yl)-2-pyridin-4-ylpyrazolo[1,5-a]pyrimidin-7-yl-8-azabicyclo[3.2.1]octane-8-carboxylate [Example 86]”, the IC50 was 270 nM.
